Source: patent US8481678B2, “Peptide-based tooth whitening reagents” (E I du Pont de Nemours and Company, priority 2009, dated 2013)
Where no end group is shown, it is not given here. The star is where a group is joined. Biotin = O=C1N[C@H]2[C@H](CS[C@H]2CCCCC(=O)*)N1

Legend:
[1] = system: pellicle-coated bovine enamel; experiment: Phage ELISA on pellicle-coated bovine enamel, candidates from brushed 8 hr pellicle, Example 17; type: binding, human; settings: phage ELISA screened with 30 min in vivo pellicle; normalized to DenP3; no-phage control 0.094
Protocol: A total of 18 selected phage candidates were used in a phage ELISA Experiment. Purified phage lysates were used for binding to pellicle-coated bovine enamel using an anti-M13 phage antibody conjugated to horseradish-peroxidase, followed by the addition of chromogenic agent TMB, obtained from Pierce Biotechnology (Rockford, Ill.). The plates were read at A450nm.
The wells were rinsed 2 times with wash buffer consisting of PBST. The wells were filled with 1 mL of […] purified phage stock which was prepared by diluting in blocking buffer. […] The non-binding phage was removed by washing 5 times with PBST. Then, 500 μL of horseradish peroxidase/anti-M13 antibody conjugate (Amersham USA, Piscataway, N.J.), diluted 1:500 in the blocking buffer, was added and incubated for 45 min at room temperature. The conjugate solution was removed and was washed 5 times with PBST.

[2] = system: pellicle-coated enamel substrates; settings: 20 μM synthetic biotinylated peptide, 30 min at 37° C.; normalized to DenP03; three replicates; no peptide −0.001
Protocol: A total of 20 synthetic peptides were manufactured using sequences obtained from Table 14. Peptides were obtained from Synbiosci (Livermore, Calif.) and included an additional SSRP sequence (SEQ ID NO: 151) at the N-terminus and biotin labeled lysine at the C-terminus.
Enamel substrates were cut to approx. 7 mm squares and mounted on wax mounting for incubation in the mouth for 30 min to form a pellicle coated surface. The pellicle-coated enamel substrates were removed from the wax backing and placed in well plates with the pellicle surface exposed as in Example 1. Each pellicle-coated substrate was incubated for 1 h at room temperature (˜22° C.) with 1 mL of blocking buffer, consisting of 1 mg/mL BSA in PBST (Pierce BupH™ #28372 with 0.1% TWEEN® 20). The blocking buffer was removed by aspirating the liquid out of each well. The tube was rinsed 2 times with wash buffer consisting of PBST. The wells were filled with 500 μL of 20 μM peptide solution which was prepared by diluting in blocking buffer. The samples were incubated for 30 min with slow shaking at 37° C. The non-binding peptide was removed by washing 6 times with PBST. Then, 500 μL of horseradish peroxidase/streptavidin conjugate (Pierce #22127), diluted 1:2000 in PBST, was added and incubated for 1 h at room temperature. The conjugate solution was removed and was washed 4 times with PBST.
Each enamel substrate was removed from the well and washed again in a 15-mL test tube with 10 mL of PBST. Each enamel substrate was then mounted in a clean well plate with only the enamel surface exposed. A 1:1 solution of TMB substrate and H2O2 (200 μL), obtained from Pierce Biotechnology (Rockford, Ill.) was added to each well and the color was allowed to develop for between 10 to 20 min, typically for 15 min, at room temperature (˜22° C.). Then, 100 μL of solution from each well was transferred to a 96-well reading plate containing stop solution (100 μL of 2 M H2SO4) in each well. The A450 was measured using a microplate spectrophotometer (Molecular Devices, Sunnyvale, Calif.). […] Each sequence was tested with three replicate enamel coated pellicle substrates.

[3] = system: pellicle coated bovine enamel; experiment: Phage ELISA on pellicle-coated bovine enamel (30 min in vivo pellicle), Example 13; type: binding, human; settings: 10^11 pfu, 30 min at 37° C., normalized to an internal control
Protocol: A total of 29 selected phage candidates from Table 14 were used in phage ELISA Experiment to determine binding affinity and coverage of each phage on pellicle substrates. Purified phage lysates were used for binding to pellicle coated bovine enamel using an anti-M13 phage antibody conjugated to horseradish-peroxidase, followed by the addition of chromogenic agent TMB, obtained from Pierce Biotechnology (Rockford, Ill.). The plates were read at A450nm.
The wells were filled with 1 mL of 10^11 pfu purified phage stock which was prepared by diluting in blocking buffer. […] The non-binding phage was removed by washing 5 times with PBST. […] The conjugate solution was removed and was washed 3 times with PBST.

[4] = Whitening of tea-stained bovine enamel with peptide reagent and cellulose acetate-coated TiO2 (CIELAB colour); parameters: key to L* / a* / b*: CIELAB coordinates: L* lightness, a*/b* chromaticity (D65 illuminant); key to ΔE: ΔE = ((ΔL*)²+(Δa*)²+(Δb*)²)^½ vs tea-stained baseline
Protocol: The peptide-based reagent comprising multiple tooth-binding peptides, spacers, and cellulose acetate-binding peptide sequences was prepared as described in Example 8.
The cellulose acetate-coated titanium dioxide was prepared as described in Example 10. The peptide-based reagent described in Example 8 (SEQ ID NO:116) was used. The peptide-based reagent was diluted with 25 mM Tris-HCl buffer including 150 mM NaCl at pH 7.5 to give a final concentration of 5 μM. The cellulose acetate-coated titanium dioxide dispersion described in Example 10 was further diluted from 20% solids to 0.25% solids in 25 mM Tris-HCl buffer at pH 7.5.
Bovine Teeth (SE Dental, Baton Rouge, La.) were used as model substrate to test with the engineered peptide-based reagent designed to bind to tooth enamel (SEQ ID NO:116). The teeth were prepared by cleaning in detergent and then disinfecting in 70% Ethanol prior to use. Each clean tooth was measured for color using an X-RITE® SP64 Spectrometer to collect a reflectance spectrum and CIELAB color coordinates, L*, a* and b*. A staining solution was made with 100 mL of boiling water exposed to 1 Lipton tea bag for 5 minutes. After the solution cooled to room temperature, each tooth was allowed to incubate in the staining solution for approximately 3 days. The teeth were removed and rinsed with water and dried. Color measurement was obtained for each tooth.
The stained bovine enamel substrates were exposed to either the 5 μM solution of peptide or as a control, the buffer used to make the peptide solution. This exposure was for 30 minutes with gentle agitation in a vortex mixer. Following peptide binding, the teeth were removed and rinsed in buffer and placed in a 0.25% solution of cellulose acetate coated titanium dioxide for 30 minutes. The teeth were removed, rinsed in buffer, blotted dry and measured for color using the X-RITE® spectrometer. The teeth were placed back in the same pigment solutions for an additional 2.5 hr and removed, rinsed and measured again.
The color intensity at each step mentioned above (e.g., to determine the change in tooth whitening) was measured using a X-RITE® SP64™ Sphere Spectrophotometer (X-Rite, Inc., Grandville, Mich.), by placing the front of the bovine tooth (treated or control) sample into a sample holder and calculating L*, a* and b* parameters representing the photometer response using a standard D65 illuminant. An initial baseline values of L*, a* and b* were measured prior to peptide treatment for the tea-stained bovine samples. All measurements are the average of three individual determinations. Delta E values are calculated using equation 1 below: Delta E=((L*1−L*2)^2+(a1−a2)^2+(b1−b2)^2)^1/2 (1) where L*=the lightness variable and a* and b* are the chromaticity coordinates of CIELAB colorspace as defined by the International Commission of Illumination (CIE) (Minolta, Precise Color Communication—Color Control From Feeling to Instrumentation, Minolta Camera Co., 1996). Larger Delta E value is indicative of an increase in whiteness. In one embodiment, a larger Delta E for the treatment group (peptide-based reagent+polymer coated white colorant) versus the Delta E of the peptide-free control is used to determine the relative increase in whiteness.

[5] = after additional 2.5 hr in CA-TiO2

## THGNKHQSWTYPSEINHKNY [DenP108]
[1]
  O.D. at 450 nm (normalized): 1.149

## NQQMKLVPQHWHRAQP [DenP119]
[1]
  O.D. at 450 nm (normalized): 1.051

## SSRPTTGSSSQADTSASMSIVPAHK(Biotin) [DenP17-A]
[2]
  O.D. at 450 nm (normalized): 0.143

## SSRPNGNNHTDIPNRSSYTGGSFAK(Biotin) [DenP1-A]
[2]
  O.D. at 450 nm (normalized): 0.154

## GYQPHYVDHTIGWQPMIRPN [DenP104]
[1]
  O.D. at 450 nm (normalized): 0.790

## NLHSPWPSHAAHHWST [DenP118]
[1]
  O.D. at 450 nm (normalized): 0.641

## GVHQYSRPTVPSYLWTSGQH [DenP103]
[1]
  O.D. at 450 nm (normalized): 0.879

## SSRPTYQGVPSWPAVIDDAIRRK(Biotin) [DenP19-A]
[2]
  O.D. at 450 nm (normalized): 0.712

## QFNQTSHSFMHGTSGYVPGK [DenP105]
[1]
  O.D. at 450 nm (normalized): 0.470

## SSRPEFPYYNDNPPNPERHTLRK(Biotin) [DenP7-A]
[2]
  O.D. at 450 nm (normalized): 0.356

## GINKGQRPPWESWHEN [DenP114]
[1]
  O.D. at 450 nm (normalized): 0.703

## SSRPELDHDSRHYMNGLQRKVTK(Biotin) [DenP15-A]
[2]
  O.D. at 450 nm (normalized): 0.460

## FPSKWYNHHRHITGHV [DenP112]
[1]
  O.D. at 450 nm (normalized): 0.413

## HDHLSWWGQFDRQNLL [DenP116]
[1]
  O.D. at 450 nm (normalized): 1.055

## SSRPIYPNESMSTSNVRGPYHPK(Biotin) [DenP22-A]
[2]
  O.D. at 450 nm (normalized): 0.354

## AIEYQHSATTPWTMRTRLPP [DenP101]
[1]
  O.D. at 450 nm (normalized): 0.467

## SMWHDITKRYRNPSEMVSAY [DenP107]
[1]
  O.D. at 450 nm (normalized): 0.726

## SFSWHRGDWELGHQSKTMGM [DenP106]
[1]
  O.D. at 450 nm (normalized): 1.524

## GYGQYVSQQTWAHSNK [DenP115]
[1]
  O.D. at 450 nm (normalized): 0.501

## SSRPQVPDYLSPTHQKKAFLEIPTK(Biotin) [DenP29-A]
[2]
  O.D. at 450 nm (normalized): 0.468

## SSRPQAAQVHMMQHSRPTTK(Biotin) [DenP13-A]
[2]
  O.D. at 450 nm (normalized): 0.699

## SSRPFDGIGLGTATRHQNRK(Biotin) [DenP12-A]
[2]
  O.D. at 450 nm (normalized): 0.475

## MPGHQESIKVQNWNRV [DenP117]
[1]
  O.D. at 450 nm (normalized): 0.433

## TTYHYKNIYQESYQQRNPAV (Synthetic oral-surface binding peptide) [DenP 03]
[1]
  O.D. at 450 nm (normalized): 1.000
[3]
  O.D. at 450 nm (normalized): 2.495

## SSRPTMTNHVYNSYTEKHSSTHRSK(Biotin) [DenP2-A]
[2]
  O.D. at 450 nm (normalized): 0.273

## SSRPYLLPKDQTTAPQVTPIVQHKK(Biotin) [DenP5-A]
[2]
  O.D. at 450 nm (normalized): 0.462

## SSRPHDPNHLTHQARTIYRNANHTK(Biotin) [DenP23-A]
[2]
  O.D. at 450 nm (normalized): 0.850

## SSRPDLGTFPNRTLKMAAHK(Biotin) [DenP11-A]
[2]
  O.D. at 450 nm (normalized): 0.454

## GGMGALESYRQWNHLA [DenP113]
[1]
  O.D. at 450 nm (normalized): 1.348

## EFYPFAEVPPEKSGIGRQVF [DenP102]
[1]
  O.D. at 450 nm (normalized): 0.520

## SSRPVEPATKNMREARSSTQMRRIK(Biotin) [DenP4-A]
[2]
  O.D. at 450 nm (normalized): 0.803

## WHEPHQFSGENTDYSSSMGT [DenP109]
[1]
  O.D. at 450 nm (normalized): 0.716

## SSRPSEARARTFNDHTTPMPIIK(Biotin) [DenP14-A]
[2]
  O.D. at 450 nm (normalized): 0.269

## DGYKLQTSLDWQMWNP [DenP111]
[1]
  O.D. at 450 nm (normalized): 1.051

B1: Engineered Peptide: recombinant triblock reagent: two tooth-binding peptides (SEQ 108), spacers, two cellulose acetate-binding peptides (SEQ 118), His-tag; applied with cellulose acetate-coated TiO2 (protein)
chain: PHMASMTGGQQMGSYSETPNDQKPNPHYKVSGTKGPEEAAKKEEAAKKPAYSETPNDQKPNPHYKVSGTKGSGGGGSGSGGGGSVRPNLHRKAKAKPDHKQSENRKVPFYSHGSSGGGGVRPNLHRKAKAKPDHKQSENRKVPFYSHGSSGGGHHHHHH
modifications: applied with cellulose acetate-coated TiO2; Synthetic peptide-based tooth whitening reagent
[4]; 5 μM peptide 30 min + 0.25% CA-TiO2 30 min, versus tea-stained baseline, buffer control 3.25
  ΔE: 6.68
[4]; 5 μM peptide 30 min + 0.25% CA-TiO2 30 min, tea-stained baseline 3.96396
  a*: 1.635
[4]; 5 μM peptide 30 min + 0.25% CA-TiO2 30 min, tea-stained baseline 22.7952
  b*: 18.0418
[4]; 5 μM peptide 30 min + 0.25% CA-TiO2 30 min, tea-stained baseline 67.0271
  L*: 71.1068
[4]; [5]
  L*: 73.9558
  a*: 1.496
  b*: 18.0851
[4]; after additional 2.5 hr in CA-TiO2, versus tea-stained baseline, buffer control 3.80
  ΔE: 8.73
